Tests used:
[1] = test system: cytidine deaminase activity in FHC cells; experiment: cytidine deaminase activity in FHC cells; type: cell-based, human; conditions: continuous exposure, period of 11 days, control 0.07±0.03 nmol/min/mg
Protocol: (§1) The cytidine deaminase activity in the cell extracts was determined by measuring the conversion of radiolabelled cytidine to […] and uracil. The assay is a combination of the methods described in J. Mejer and P. Nygaard, “Cytosine Arabinoside Phosphorylation and Deamination in Acute Myeloblastic Leukemia Cells”, Leukemia Research 2, 1978 pp. 127-131, and B. R. De Saint Vincent et al., “The Modulation of Thymidine Triphosphate Pool of Chinese Hamster Cells by dCMP Deaminase and UDP Reductase”, J. Biol. Chem. 255, 1980, pp. 162-167, which are hereby incorporated by reference.
(§2) The effect of administration of 1α, 25-dihydroxyvitamin D3 or seocalcitol (EB 1089) on growth of FHC cells was investigated. FHC cells are normal human colon epithelial cells (ATCC CRL-1831) considered to be a good model of normal human colon epithelium. The cells were grown in a culture medium supplemented with 10^−7 M 1α,25-dihydroxyvitamin D3 or seocalcitol for 14 days.
Similarly, cytidine deaminase and thymidine phosphorylase activity in FHC cells following continuous exposure to 1α,25-dihydroxyvitamin D3 or seocalcitol was determined as described in example 1. […]

FHC cells = experiment: growth of FHC cells; type: cell-based; conditions: normal human colon epithelial cells, 10^-7 M, 14 days
Protocol: as §2

[2] = test system: thymidine phosphorylase (TP) activity in HT-29 cells; experiment: thymidine phosphorylase activity in extracts of treated HT-29 cells; type: cell-based, human; conditions: 10^-7 M; for thymidine phosphorylase activity: at day 11 (control 0.395±0.062); for thymidine phosphorylase activity compared to isopropanol-treated cells: first 5 days
Protocol: (§3) HT-29 cells (a human colon cancer cell line) were grown in medium to which was added 0.0025% isopropanol as control, 10^−7 M 1α, 25-dihydroxyvitamin D3 or 10^−7 M seocalcitol, respectively. The medium was changed on days 1, 4, 6, 8, 11 and 13, each time with addition of isopropanol, 1α, 25-dihydroxyvitamin D3 or seocalcitol, as appropriate.
(§4) On each of the indicated days, cells from each culture were harvested, pelleted and frozen. For the cytidine deaminase and thymidine phosphorylase assays, the frozen cell pellet was thawed and resuspended in 150 μl of 0.1 M Tris-Hcl, pH 8.1. The cell suspension was sonicated for 2-5 seconds and centrifuged at 20000×g for 20 minutes at 4° C. 100 μl of cell extract was transferred to Eppendorf tubes containing 0.5 μl 1M DTT.
(§5) The thymidine phosphorylase activity was determined by measuring the conversion of radiolabelled thymidine to thymine. The assay method used was a slight modification of the method described in T. Sumizawa et al., “Thymidine Phosphorylase Activity Associated with Platelet-Derived Endothelial Cell Growth Factor”, J. Biochem. 114, 1993, pp. 9-14, which is hereby incorporated by reference.
10 μl 50 mM sodium phosphate, pH 7.0
10 μl mM Tris-HCl, pH 7.6
2 μl ^3H-thymidine (5 Ci/mmol, 1 mCi/ml)
The substrate and product were separated on PEI-cellulose plates placed in about 1.5 cm of water.

cytidine deaminase gene = conditions: HL60, WiDr, Colo 201, Colo 205, CXF 280, DLD-1, MKN 45, MKN 1, MKN 28 and A549 cells; cited from earlier work
[3] = test system: cytidine deaminase (CDA) activity in HT-29 cells; experiment: cytidine deaminase activity in extracts of treated HT-29 cells; type: cell-based, human; conditions: 10^-7 M; for increase in cytidine deaminase activity: incubation at day 1 for 24 hours, versus isopropanol control
Protocol: as §3, §4, §1
The assay mixture has a total volume of 50 μl and the following composition:
2 μl ^3H-cytidine (18.2 Ci/mmol, 1 mCi/ml)
The substrate and products were separated on PEI-cellulose plates placed in about 1.5 cm of a mixture of isopropanol:water:ethyl acetate 41:22:117.

[4] = test system: cytidine deaminase in HL60 cells; conditions: human promyeolytic cell line HL60; cited from earlier work
[5] = test system: thymidine phosphorylase activity in FHC cells; experiment: thymidine phosphorylase activity in FHC cells; type: cell-based, human; conditions: continuous exposure, period of 11 days, control 0.25±0.04 nmol/min/mg
Protocol: as §5, §2
Similarly, cytidine deaminase and thymidine phosphorylase activity in FHC cells following continuous exposure to 1α,25-dihydroxyvitamin D3 or seocalcitol was determined as described in example 1. The cytidine deaminase and thymidine phosphorylase activity in control cells remained constant at 0.07±0.03 and 0.25±0.04 nmol/min/mg, respectively, over a period of 11 days and was unaffected by the presence of 1α,25-dihydroxyvitamin D3 or seocalcitol.

solid tumours = conditions: clinical efficacy, limited by dose-limiting toxicity; cited from earlier work
[6] = test system: estrogen receptor-negative MDA-MB-231 tumours; conditions: in combination with doxifluridine, MDA-MB-231 tumours in athymic mice; cited from earlier work
[7] = test system: cell growth and enzymatic activity; experiment: 2 hours versus continuous exposure (previous experiment); type: cell-based; conditions: 10^-7 M
[8] = after 8 days of incubation, p<0.0001

| SMILES | cytidine deaminase activity in FHC cells [1] | growth of FHC cells compared to untreated control cells (FHC cells) | thymidine phosphorylase activity [2] [nmol/min/mg] | thymidine phosphorylase activity compared to isopropanol-treated cells [2] | expression of the cytidine deaminase gene (cytidine deaminase gene) | maximum increase in cytidine deaminase activity [3, 8] [fold] | increase in cytidine deaminase activity [3] [fold] | cytidine deaminase in HL60 cells [4] | thymidine phosphorylase activity in FHC cells [5] | overall response rate (solid tumours) | effect of combination treatment versus 22-oxacalcitriol alone [6] | increase in cytidine deaminase activity relative to that observed for 1α,25-dihydroxyvitamin D3 [3, 8] | effect on cell growth and enzymatic activity of 2 hours of exposure versus continuous exposure [7] |
| --- | --- | --- | --- | --- | --- | --- | --- | --- | --- | --- | --- | --- | --- |
| C=C1/C(=C\C=C2/CCC[C@]3(C)[C@@H]([C@H](C)CCCC(C)(C)O)CC[C@@H]23)C[C@@H](O)C[C@@H]1O [1α,25-dihydroxyvitamin D3] | unaffected | not significantly affected | 0.323 | the same as in isopropanol-treated cells | upregulates | 15.5 | 4.5 | causes an increase | unaffected |  |  |  |  |
| O=c1[nH]cc(F)c(=O)[nH]1 [5-FU, 5-fluorouracil] |  |  |  |  |  |  |  |  |  | 10-30% |  |  |  |
| C=C1/C(=C\C=C2/CCC[C@]3(C)[C@@H]([C@H](C)OCCC(C)(C)O)CC[C@@H]23)C[C@@H](O)C[C@@H]1O [22-oxacalcitriol] |  |  |  |  |  |  |  |  |  |  | did not exceed that of treatment with 22-oxacalcitriol alone |  |  |
| C=C1/C(=C\C=C2/CCC[C@]3(C)[C@@H]([C@H](C)/C=C/C=C/C(O)(CC)CC)CC[C@@H]23)C[C@@H](O)C[C@@H]1O [seocalcitol] | unaffected | not significantly affected | 0.672 | the same as in isopropanol-treated cells |  |  | 4.9 |  | unaffected |  |  | twice | equivalent effect |
